Patent publication US20130085469A1, “TAUROLIDINE FORMULATIONS AND DELIVERY: THERAPEUTIC TREATMENTS AND ANTIMICROBIAL PROTECTION AGAINST BACTERIAL BIOFILM FORMATION” (priority 2004, published 2013)
Where two headings read alike, the source gives them in different places.

Columns and labels:
typical bacteria [1] = assay: Minimum bactericidal concentration (MBC); assay type: cell-based
[2] = Pharmacokinetics, central blood values after IV dose; assay type: in vivo; settings: human, corresponds to first time constant 0.3
Text: (§1) FIG. 1 illustrates the clearance of a typical antibiotic in the blood stream. It is a typical power decay curve after drug administration. Table 3 lists important variables which determine the biocidal effect on bacteria in the blood stream. The 5 factors in the upper portion of the table define the characteristics for Vancomycin, a typical antibiotic, and the characteristics for Taurolidine. Lower in the table is the portion called Surrogate Markers. These markers are Pharmacokinetic/Pharmacodynamic (PK/PD) values calculated from the concentration profiles in the body for specifics sites and drugs to guide therapy. The derived parameters have been estimated for Vancomycin (see FIG. 1, which is average values defined in the drug label with data obtained from human trials). Taurolidine Markers have been obtained from various literature sources. The Markers are useful in predicting antimicrobial drug efficacy in infection eradication. Of course, the values of the PK/PD parameters must be for the specific bacteria causing the infection and for the specific body site.
Kinetic parameters from Steinbach et al.^28 and infusion data from Willatts et al.^27 were used for the calculation. Taurolidine diffuses rapidly and body water concentration is equivalent to the plasma water concentration. […]

[3] = Diffusion through silicone rubber catheter wall; assay type: physicochemical; settings: silicone rubber 2 mm ID, 0.5 mm wall, filled with water, 2% Taurolidine bath, UV-Vis
Description: 4. Taurolidine is a small molecule able to pass through human skin as well as through polymeric materials passively by diffusion which is driven by a concentration gradient. Experiments were conducted to determine if Taurolidine is able to diffuse through silicone rubber at a rate sufficient to achieve clinical significance. The experiment was conducted with a HD catheter-sized silicone rubber (i.e., 2 mm ID and 0.5 mm wall thickness). This was filled with water and capped off. It was immersed in a 2% Taurolidine bath. Within 3 days the inner volume equilibrated with the Taurolidine bath. The sensing instrument was a UV-Vis spectrometer.

bacteria [4] = settings: cited from earlier work
typical bacteria [5] = settings: cited from earlier work
[6] = test system: Planktonic form of bacteria; settings: cited from earlier work
[7] = cited from earlier work
[8] = cited from earlier work; remark: listed apart in the source
[9] = in vivo; cited from earlier work
[10] = test system: infection from HD catheters; settings: 2 controlled studies; cited from earlier work
[11] = test system: resistant Burkholderia cepacia; settings: isolates from adult cystic fibrosis patients; cited from earlier work
Burkholderia cepacia = settings: delivered to the lung via a nebulizer; cited from earlier work
[12] = 30 g/day infused; cited from earlier work
[13] = over several years at room temperature; cited from earlier work
[14] = test system: clinically significant bacterial strains and some important fungi; settings: published test results; cited from earlier work
bacteria [15] = settings: 25 years of clinical use and many in-vitro tests; cited from earlier work
[16] = Max tolerated dose and max potential delivery; assay type: in vivo; settings: calculated in footnote a
Text: as §1

O=S1(=O)CCN(CN2CCS(=O)(=O)NC2)CN1 [Taurolidine, 4,4′ Methlyen-bis(tetrahydro-2H-1,4-thiadiazin-1,1dioxide)]
MBC relative to antibiotics (typical bacteria [1]): Taurolidine has an approximate 1000 times higher
half-life [2]: ~2.3 h
time for inner volume to equilibrate with the Taurolidine bath [3]: ≤ 3 days
concentration needed to show minimum effectiveness (bacteria [4]): > 0.05%
lower end range for MIC (bacteria [4]): approximately 0.5 mg/mL
MBC (typical bacteria [5]): MBC than antibiotics. (i.e., MBC of 2 mg/ml vs. 2 ug/ml
exposure to achieve killing action [6]: Planktonic form of bacteria requires approximately 2 hours
Peak Plasma Concentration (CP) ([7]; cell adds: Not applicable for Taurolidine): 150 μg/ml^28
T1/2 (Drug Half Life in Blood) ([7]; first value of 70/140, footnote b, time const 0.57): ~70 min
T1/2 (Drug Half Life in Blood) ([7]; second value of 70/140, footnote b, first time constant 0.3): ~140 min
Max Tolerated Dose [8]: >30 g/day^27
concentration producing pain in most tissue on contact [9]: ≥ 10000 µg/mL
pain on direct contact with most tissue [9]: Direct contact with most tissue causes intense pain
reduction in infection compared to conventional heparin lock [10]: ~2 controlled studies resulted in approximately 95%
in vitro response [11]: positive response
reduction in bacterial load (Burkholderia cepacia): failure to achieve a significant reduction in bacterial load in most patients
benefit of Taurolidine infusion in sepsis syndrome [12]: No benefits
decremental effect of Taurolidine infusion [12]: not shown any statistically significant decremental effect
stability in powder or aqueous solution [13]: Taurolidine in powder or aqueous solution is stable
broad spectrum antimicrobial effect [14]: Effective against substantially all clinically significant
bacterial resistance (bacteria [15]): 1. No Bacterial Resistance

CN[C@H](CC(C)C)C(=O)N[C@H]1C(=O)N[C@@H](CC(N)=O)C(=O)N[C@H]2C(=O)N[C@H]3C(=O)N[C@H](C(=O)N[C@H](C(=O)O)c4cc(O)cc(O)c4-c4cc3ccc4O)[C@H](O)c3ccc(c(Cl)c3)Oc3cc2cc(c3O[C@@H]2O[C@H](CO)[C@@H](O)[C@H](O)[C@H]2O[C@H]2C[C@](C)(N)[C@H](O)[C@H](C)O2)Oc2ccc(cc2Cl)[C@H]1O [Vancomycin]
Max Tolerated Dose [16]: >5 g/day (See footnote a)
MIC (Minimum Inhibitory Concentration) (bacteria [4]): <4 μg/mL^29
Peak Plasma Concentration (CP) ([7]; average values from drug label, FIG. 1): 50 µg/mL
T1/2 (Drug Half Life in Blood) [7]: ~7 hours^30
